Where two headings read alike, the source gives them in different places.

Results on six compounds are retold here after patent US20080175801A1, “Stable peroxide containing personal care compositions” (The Procter & Gamble Company, priority 2007, published 2008).

The nature of this series: Accelerated stability of flavor components in peroxide mouthrinse, measured by gas chromatography. It counts as physicochemical. As to conditions: for % Reduction at day 17, Formula IA / % Reduction at day 31, Formula IA: Formula IA with Glass H polyphosphate radical scavenger; for % Reduction at day 17, Formula IA / % Reduction at day 31, Formula IA / % Reduction at day 17, Formula IB / % Reduction at day 31, Formula IB / % Reduction at day 17, Treated / % Reduction at day 31, Treated / % Reduction at day 17, Untreated / % Reduction at day 31, Untreated: component at 0.005%; for % Reduction at day 17, Formula IB / % Reduction at day 31, Formula IB: no radical scavenger, not treated to remove metals; for % Reduction at day 17, Treated / % Reduction at day 31, Treated: formulation IB treated with polymer supported chelant; for % Reduction at day 17, Treated / % Reduction at day 31, Treated / % Reduction at day 17, Untreated / % Reduction at day 31, Untreated: vs day 0; for % Reduction at day 17, Untreated / % Reduction at day 31, Untreated: formulation IB untreated. The protocol: The stability of the present compositions was assessed by measuring any changes in levels of peroxide, active component (cetylpyridinium chloride) and flavor components under storage conditions at 40° C. and 75% Relative Humidity.
A flavor mix consisting of Ethylbutyrate, Limonene, Decanal, Methylsalicylate, Carvone and Anethole (each flavor component at 0.005%) was added to the compositions. The resulting mouthrinse formulations were packaged in 500 ml PET bottles and placed on accelerated stability test chamber at 40° C. and 75% Relative Humidity conditions. The amount of peroxide in the samples was measured using the method described above and no significant changes were detected. However, radical activity was greater in the untreated sample vs. the treated sample as evidenced in greater degradation of flavor components in the untreated sample. The amount of each flavor component at time 0, 17 and 31 days was evaluated by gas chromatography (GC). Results are summarized in Table 2 below showing % reduction of each component and total flavor at days 17 and 31 from day 0. […] The treatment also […].
Formulation IA with Glass H polyphosphate as radical scavenger was compared with a sample of formulation IB (no radical scavenger) that was not treated to remove metals. […] The resulting mouthrinse formulations were packaged in 500 ml PET bottles and placed on accelerated stability test chamber at 40° C. and 75% Relative Humidity. The amount of each flavor component at time 0, 17 and 31 days were measured by gas chromatography (GC).

In the case of `CCCCCCCCCC=O` [Decanal], the “Effect of polyphosphate radical scavenger on stability of flavor component” value (shortened to “Effect”) was “increased stability” and the “Stability of flavor component in the presence of peroxide” value (shortened to “Stability … of peroxide”) is reported as “significant decomposition”. Under “40° C., 75% RH”, the “% Reduction at day 17, Formula IA” value was determined as 20%; the “% Reduction at day 31, Formula IA” value is 40%; the “% Reduction at day 17, Formula IB” value turned out to be 80%; the “% Reduction at day 31, Formula IB” value came out at 80%. Under “40° C., 75% RH”, the “% Reduction at day 17, Treated” value came out at 25%; the “% Reduction at day 31, Treated” value was 75%; the “% Reduction at day 17, Untreated” value is reported as 80%; the “% Reduction at day 31, Untreated” value is on record as 80%.

Take `CC=Cc1ccc(OC)cc1` [Anethole]: the “Effect” value is given as “increased stability” and the “Stability … of peroxide” value is given as “significant decomposition”. Besides, where the note is “40° C., 75% RH”, the “% Reduction at day 17, Formula IA” value came out at 60%; the “% Reduction at day 31, Formula IA” value came to 80%; the “% Reduction at day 17, Formula IB” value is reported as 100%; the “% Reduction at day 31, Formula IB” value was 100%. Further, under “40° C., 75% RH”, the “% Reduction at day 17, Treated” value was determined as 60%; the “% Reduction at day 31, Treated” value is listed as 80%; the “% Reduction at day 17, Untreated” value is on record as 100%; the “% Reduction at day 31, Untreated” value was 100%.

Take `CCCC(=O)OCC` [Ethylbutyrate]: the “Effect” value is “increased stability”. Besides, where the note is “40° C., 75% RH”, the “% Reduction at day 17, Formula IA” value turned out to be 0%; the “% Reduction at day 31, Formula IA” value is recorded as 0%; the “% Reduction at day 17, Formula IB” value is reported as 20%; the “% Reduction at day 31, Formula IB” value was found to be 20%. In addition, for the setting “40° C., 75% RH”, the “% Reduction at day 17, Treated” value came out at 25%; the “% Reduction at day 31, Treated” value amounted to 25%; the “% Reduction at day 17, Untreated” value is 20%; the “% Reduction at day 31, Untreated” value was found to be 20%.

As for `C=C(C)C1CC=C(C)C(=O)C1` (stereo not drawn) [Carvone], under “40° C., 75% RH”, the “% Reduction at day 17, Formula IA” value is 50%; the “% Reduction at day 31, Formula IA” value is reported as 50%; the “% Reduction at day 17, Formula IB” value is given as 20%; the “% Reduction at day 31, Formula IB” value is 20%. Besides, under “40° C., 75% RH”, the “% Reduction at day 17, Treated” value amounted to 20%; the “% Reduction at day 31, Treated” value is recorded as 20%; the “% Reduction at day 17, Untreated” value worked out at 20%; the “% Reduction at day 31, Untreated” value was 20%.

Regarding `C=C(C)[C@H]1CC=C(C)CC1` [Limonene], under “40° C., 75% RH”, the “% Reduction at day 17, Formula IA” value is recorded as 25%; the “% Reduction at day 31, Formula IA” value amounted to 25%; the “% Reduction at day 17, Formula IB” value was found to be 100%; the “% Reduction at day 31, Formula IB” value is reported as 100%. In addition, for the setting “40° C., 75% RH”, the “% Reduction at day 17, Treated” value is 75%; the “% Reduction at day 31, Treated” value worked out at 75%; the “% Reduction at day 17, Untreated” value came to 100%; the “% Reduction at day 31, Untreated” value is reported as 100%. Besides, for the setting “in words, formulation IA vs untreated IB, 40° C., 75% RH”, the “Effect” value was “increased stability”. Also, the “Stability … of peroxide” value (in words, formulation IB, 40° C., 75% RH) is listed as “significant decomposition”.

Regarding `COC(=O)c1ccccc1O` [Methylsalicylate], the “Stability … of peroxide” value was “relatively stable”.
